Type in all cases: cell-based
For assay [1], the system named is HOP-92. Kind of assay: NCI 60 screen, HOP-92. To be noted: Homo sapiens, Non-Small Cell Lung. How it is done: (§1) The compounds synthesized were tested at the National Cancer Institute (NCI) for anti-proliferative activity in the 60 human tumor cell line assay.
In assay [2] the test system is SK-MEL-2. Kind of assay: NCI 60 screen, SK-MEL-2 (first line). To be noted: Homo sapiens; Melanoma, SK-MEL-2 (first of two lines so named, r37). Here is the method:
as §1

Assay [3] relates to ACHN. The experiment in a line: NCI 60 screen, ACHN. To be noted: Homo sapiens, Renal. How it is done: as §1
Assay [4] has as its system CAKI-1. Kind of assay: NCI 60 screen, CAKI-1. As to conditions: Homo sapiens, Renal. How it is done:
as §1

For assay [5], the system named is 786-0. The experiment in a line: NCI 60 screen, 786-0. As to conditions: Homo sapiens, Renal. How it is done:
as §1

Assay [6] concerns TK-10. Kind of assay: NCI 60 screen, TK-10. To be noted: Homo sapiens, Renal. Here is the method: as §1
Assay [7] relates to SK-MEL-2. Kind of assay: NCI 60 screen, SK-MEL-2 (second line). To be noted: Homo sapiens; Melanoma, SK-MEL-2 (second of two lines so named, r38). Here is the method: as §1
Assay [8] deals with COLO 205. Kind of assay: NCI 60 screen, COLO 205. To be noted: Homo sapiens, Colon. How it is done:
as §1

Assay [9] concerns MOLT-4. Kind of assay: NCI 60 screen, MOLT-4. As to conditions: Homo sapiens, Leukemia. Here is the method: as §1
The test system of assay [10] is HL-60(TB). The experiment in a line: NCI 60 screen, HL-60(TB). As to conditions: Homo sapiens, Leukemia. How it is done: as §1
Assay [11] concerns IGROV1. The experiment in a line: NCI 60 screen, IGROV1. As to conditions: Homo sapiens, IGROV-1, Ovarian. How it is done: as §1
The test system of assay [12] is MDA-MB-468. Kind of assay: NCI 60 screen, MDA-MB-468. As to conditions: Homo sapiens, Breast. How it is done:
as §1

The subject of assay [13] is UO-31. Kind of assay: NCI 60 screen, UO-31. As to conditions: Homo sapiens, Renal. How it is done:
as §1

Assay [14] has as its system CCRF-CEM. The experiment in a line: NCI 60 screen, CCRF-CEM. As to conditions: Homo sapiens, Leukemia. Here is the method: as §1
Assay [15] relates to SF-268. Kind of assay: NCI 60 screen, SF-268. As to conditions: Homo sapiens, CNS. How it is done:
as §1

Assay [16] relates to PC-3. Kind of assay: NCI 60 screen, PC-3. As to conditions: Homo sapiens, Prostatic. How it is done: as §1
Assay [17] has as its system OVCAR-3. Kind of assay: NCI 60 screen, OVCAR-3. As to conditions: Homo sapiens, Ovarian. How it is done:
as §1

Assay [18] has as its system MALME-3M. The experiment in a line: NCI 60 screen, MALME-3M. To be noted: Homo sapiens, Melanoma. How it is done:
as §1

For assay [19], the system named is SNB-75. Kind of assay: NCI 60 screen, SNB-75. To be noted: Homo sapiens, CNS. Here is the method:
as §1

Assay [20] relates to NCI-H226. The experiment in a line: NCI 60 screen, NCI-H226. As to conditions: Homo sapiens, Non-Small Cell Lung. How it is done:
as §1

SMILES strings stand for the structures.

As for `O=C(Cc1ccc(/C=C/C(=O)c2ncc[nH]2)cc1)Nc1ccc(Cl)cc1` [Compound 25, (E)-2-(-4 (3-(1H-imidazol-2-yl)-3-oxoprop-1-en-1-yl)phenyl)-N-(4-chlorophenyl)acetamide], the GI50 in [1] came to 5.74 µM; in assay [2], 5.53 µM; in [3] it was 4.04 µM; in [4], 4.88 µM; in assay [5], 1.13 µM; in assay [6], 5.41 µM. In addition, the concentration for 50% growth inhibition (GI50) in assay [7] amounted to 4.81 µM; in assay [8] it was 3.01 µM; in [9] it was 1.8 µM; in assay [10], 3.8 µM; in assay [11], 3.59 µM; in assay [12] it was 1.68 µM. The GI50 in [13] turned out to be 1.69 µM; in [14], 1.08 µM; in [15] it was 1.65 µM; in assay [16], 2.39 µM; in assay [17] it was 1.14 µM; in [18], 6.24 µM. The GI50 in assay [19] amounted to 3.63 µM; in [20] it was 7.5 µM.

As usually defined, the GI50 is the concentration that inhibits growth by half.
